# Assay results published in patent publication US5674867A, “Indolocarbazole derivatives and therapeutic method for stimulating megakaicyocyte production” (Kyowa Hakko Kogyo Co., Ltd., priority 1992, dated 1997).
# Assays:
# [1] = tested on: bone marrow cells (megakaryocyte colony formation); test: Megakaryocyte colony formation-stimulating activity (ACHE-stained colonies, bone marrow cells with IL-3); assay type: cell-based, BALB/c mouse; settings: with IL-3 100 U/ml, 7 days
# Procedure: An eight-weeks-old BALB/c mouse was killed. Its femurs and cervical vertebrae were taken out, and both end sections thereof were cut off. Bone marrow cells were collected from the pieces cut off from the femurs and cervical vertebrae using a syringe containing IMDM (430-2200EA prepared by Gibco Co.), and then blown into a test tube. The test tube was allowed to stand for 5 minutes, and the supernatant was collected with a pipet. To a reaction mixture comprising the bone marrow cells (50,000 cells), bovine serum albumin (2%: A4508 made by Sigma Co.), transferrin (600 μg/ml 652202 made by Boehringer Mannheim Co.), IL-3 (100 U/ml), cholesterol (16 μg/ml: 036-0641 made by Wako Co.) and agar (0.6%: 0142-02 made by Difco Laboratories) were separately added the test compounds at various concentrations, and 1 ml each of the mixtures was put into a 35-mm dish (Lux Co.), followed by incubation under the conditions of 37° C., 5% CO2 and a humidity of 95% or more for 7 days. Separately, IL-3 alone was added to the bone marrow cells to prepare a control, whereas a positive control was prepared by adding 200 U/ml IL-6 to the above-mentioned reaction mixture. After the incubation was completed, the agar was dried over a filter paper (1001-055 made by Whatman Co.) and then fixed with 2.5% glutaraldehyde, followed by acetylcholinesterase staining (ACHE staining).
# The ACHE staining was carried out by the method described below.
# ACHE staining: To each sample was added a solution comprising 0.67 mg/ml acetylthiocholine iodide, 2.94 mg/ml sodium citrate, 7.5 mg/ml copper (II) sulfate and 1.65 mg/ml potassium ferricyanide, and the mixture was allowed to stand at room temperature in the dark for 4-6 hours.
# A group of 4 or more megakaryocytes which were stained reddish brown was regarded as a colony, and the number of colonies per dish was calculated using a microscope. The results are shown in Table 2 as relative values to the control.
# [2] = Acute toxicity test; settings: mouse, in vivo, ip; male DDY mice, intraperitoneal, survival after 24 hours; read-out: LD50 (50% survival dose)
# Procedure: To 6-weeks-old male DDY mice (3 per group) was intraperitoneally administered 0.2 ml of a solution of a test compound in a phosphate-buffered physiological saline. The 50% survival doses (LD50) were calculated from the survival rate after 24 hours. The LD50 for Compounds I-1, 17, 25, 26, 30-33, 35, 40 and 52 was >1 mg/kg, while that for all the other compounds was >30 mg/kg.
Compound,"Relative value (megakaryocyte colonies, control = 100) ([1]; 1.0 pM)","Relative value (megakaryocyte colonies, control = 100) ([1]; 10 pM)",LD50 at 24 h [2] [mg/kg],"Relative value (megakaryocyte colonies, control = 100) ([1]; 0.1 nM)","Relative value (megakaryocyte colonies, control = 100) ([1]; 1 nM)","Relative value (megakaryocyte colonies, control = 100) ([1]; 10 nM)","Relative value (megakaryocyte colonies, control = 100) ([1]; 200 U/ml, positive control)"
"COC(=O)C1(O)CC2OC1(C)n1c3ccccc3c3c4c(c5c6ccccc6n2c5c31)C(=O)NC4 (stereo not shown) [Compound I-35, K-252a]",130,140,> 1,–,–,–,–
CNC1CC2OC(C)(C1OC)n1c3ccccc3c3c4c(c5c6cc(C(C)=O)ccc6n2c5c31)C(=O)NC4 (stereo not shown) [Compound I-30],–,–,> 1,111,119,117,–
CNC1CC2OC(C)(C1OC)n1c3ccc(C(C)=O)cc3c3c4c(c5c6cc(C(C)=O)ccc6n2c5c31)C(=O)NC4 (stereo not shown) [Compound I-31],–,–,> 1,76,94,109,–
CCCOc1ccc2c(c1)c1c3c(c4c5ccccc5n5c4c1n2C1CC(NC)C(OC)C5(C)O1)CNC3=O (stereo not shown) [Compound I-33],–,–,> 1,101,114,105,–
CCCN(C)C1CC2OC(C)(C1OC)n1c3ccccc3c3c4c(c5c6ccccc6n2c5c31)C(=O)NC4 (stereo not shown) [Compound I-26],–,–,> 1,108,121,111,–
CNC1CC2OC(C)(C1OC)n1c3ccc(C=O)cc3c3c4c(c5c6cc(C=O)ccc6n2c5c31)C(=O)NC4 (stereo not shown) [Compound I-32],–,–,> 1,76,94,109,–
"CN[C@@H]1C[C@H]2O[C@@](C)([C@@H]1OC)n1c3ccccc3c3c4c(c5c6ccccc6n2c5c31)C(=O)NC4 [Compound I-17, staurosporine]",119,107,> 1,–,–,–,–
COC(=O)C1(OC)CC2OC1(C)n1c3ccc(Br)cc3c3c4c(c5c6cc(Br)ccc6n2c5c31)C(=O)NC4 (stereo not shown) [Compound I-40],–,–,> 1,109,125,114,–
COCOC1(C(=O)OC)CC2OC1(C)n1c3ccccc3c3c4c(c5c6ccccc6n2c5c31)C(=O)NC4 (stereo not shown) [Compound I-39],–,–,–,123,109,92,–
CNC1CC2OC(C)(C1OC)n1c3ccccc3c3c4c(c5c6cc(O)ccc6n2c5c31)C(=O)NC4 (stereo not shown) [Compound I-52],–,–,> 1,–,–,–,–
COC1C(N(C)C)CC2OC1(C)n1c3ccccc3c3c4c(c5c6ccccc6n2c5c31)C(=O)NC4 (stereo not shown) [Compound I-25],–,–,> 1,119,124,100,–
CCCN1C(=O)c2c(c3c4ccccc4n4c3c3c2c2ccccc2n3C2CC(O)(C(=O)OC)C4(C)O2)C1=O (stereo not shown) [Compound I-44],–,–,–,126,70,118,–
COC1C(N(C)C(=O)OCc2ccccc2)CC2OC1(C)n1c3ccccc3c3c4c(c5c6ccccc6n2c5c31)C(=O)N(C)C4 (stereo not shown) [Compound I-18],–,–,–,118,88,84,–
CCCOC(=O)C1(O)CC2OC1(C)n1c3ccccc3c3c4c(c5c6ccccc6n2c5c31)C(=O)NC4 (stereo not shown) [Compound I-42],–,–,–,91,107,122,–
O=C1NCc2c1c1c3ccccc3[nH]c1c1[nH]c3ccccc3c21 [Compound I-16],–,–,–,118,88.3,100,–
COC1C(N(C)C(C)=O)CC2OC1(C)n1c3ccccc3c3c4c(c5c6ccccc6n2c5c31)C(=O)NC4 (stereo not shown) [Compound I-28],–,–,–,89,101,95,–
IL-6: hematopoietic factor which stimulates the production of blood platelets; positive control,–,–,–,–,–,–,117
"CNC1CC2OC(C)(C1OC)n1c3ccccc3c3c4c(c5c6ccccc6n2c5c31)C(=O)N(C)C4O (single isomer, unassigned) [Compound I-23b]",–,–,–,114,–,–,–
